Columns and labels:
[1] = molecular target: T1, full-length HAQ STING (Homo sapiens, UniProt Q86WV6, G230A/H232R/R293Q/R71H); experiment: 3H-cGAMP filtration binding assay (HAQ STING); conditions: competition with tritiated cGAMP, HAQ STING membrane
T1 construct: AviTag (after GG linker) (C); HRV3C cleavage site (after GS linker) (C); HIS8 (C); made in house; host or cells: Trichoplusia ni (Hi-Five) insect cells infected with baculovirus (virus generated and amplified in Sf21 cells); used as a washed membrane preparation
Excerpt: The ability of compounds to bind STING is quantified by the ability to compete with tritiated cGAMP ligand for human STING receptor membrane using a radioactive filter-binding assay. The binding assay employs STING receptor obtained from Hi-Five cell membranes overexpressing full-length HAQ STING prepared in-house and tritiated cGAMP ligand also purified in-house.
(§1) The ability of compounds to bind STING is quantified by their ability to compete with tritiated cGAMP ligand for human STING receptor membrane using a radioactive filter-binding assay. The binding assay employs STING receptor obtained from Trichoplusia ni cell membranes (T. ni; Expression Systems, cat #94-002F, www.expressionsystems.com) overexpressing full-length HAQ STING and tritiated cGAMP ligand.
The basic HAQ STING filtration assay protocol is as follows:
The compounds were serially titrated by the Hamilton STARPlus CORE in a 96-well plate (Greiner, #651201) using a 1:3 ten-point dose response format. After compound preparation, a 2.2 ug/ml working concentration of STING membrane (SEQ. ID. No. 1) was prepared by diluting concentrated membrane into assay buffer (1×PBS; Invitrogen # SH30028.02) and douncing 7× using a manual tissue homogenizer (Wheaton, #357546). 148 uL of prepared membrane was then manually added to each well of a 96-well deep-well polypropylene plate (Fisher Scientific, #12-566-121). Following membrane addition, 2 uL of either titrated test compound, DMSO control (Sigma #276855), or cold cGAMP control was added to the appropriate wells using a BIOMEK FX. Compound and membrane then preincubated for 60 min at RT to allow compound binding to equilibrate. Following equilibration, 8 nM of [^3H]c-GAMP ligand was prepared by diluting into assay buffer, and 50 uL of this working stock was then manually added to each well of the assay plate. Plates were then incubated at RT for 60 min, and the contents of each assay plate were then filtered through a 96-well GF/B filter plate (PerkinElmer, #6005250) using a TOMTEC MACH III Cell Harvester equipped with 20 mM HEPES buffer (Fisher Scientific, # BP299500). The filter plates were then dried at 55° C. for 30 min using a pressurized oven before 30 uL of ULTIMA GOLD F scintillate was added to each well. Tritium levels for each reaction well were then measured using a PerkinElmer TopCount plate reader.
(§2) After normalization to controls, the percent activity for each compound concentration was calculated by measuring the amount of remaining radioactivity. The plot of percent activity versus the log of compound concentration was fit with a 4-parameter dose response equation to calculate EC50 values.

[2] = molecular target: T2, full-length WT STING (Homo sapiens, UniProt Q86WV6, H232R); experiment: 3H-cGAMP filtration binding assay (WT STING); conditions: competition with tritiated cGAMP, WT STING membrane
T2 construct: AviTag (after gg linker) (C); HRV3C cleavage site (after gs linker) (C); HIS8 (C); made in house; host or cells: Trichoplusia ni (Hi-Five) insect cells infected with baculovirus (virus generated and amplified in Sf21 cells); used as a washed membrane preparation
Experimental: as §1, with “WT” for “HAQ”
The basic WT STING filtration assay protocol is as follows:
16 nM of [^3H] c-GAMP ligand was prepared by diluting into assay buffer, and 50 uL of this working stock was manually added to each well of the assay plate. After ligand addition, 2 uL of either titrated test compound, DMSO control (Sigma #276855), or cold cGAMP control was added to the appropriate wells using a BIOMEK FX. The serially titrated compound was prepared on a Hamilton STARPlus CORE in a 96-well plate (Greiner, #651201) using a 1:3 ten-point dose response format. Following compound addition, a 2.2 ug/ml working concentration of STING membrane (SEQ. ID. No. 3) was prepared by diluting concentrated membrane into assay buffer (1×PBS; Invitrogen # SH30028.02) and douncing 7× using a manual tissue homogenizer (Wheaton, #357546). 148 uL of this prepared membrane was then manually added to each well of a 96-well deep-well polypropylene plate (Fisher Scientific, #12-566-121). Compound, ligand, and membrane then incubated for 60 min at RT before the contents of each assay plate were filtered through a 96-well GF/B filter plate (PerkinElmer, #6005250) using a TOMTEC MACH III Cell Harvester equipped with 20 mM HEPES buffer (Fisher Scientific, # BP299500). The filter plates were then dried at 55° C. for 30 min using a pressurized VWR oven before 30 uL of ULTIMA GOLD F scintillate was added to each well. Tritium levels for each reaction well were then measured using a PerkinElmer TopCount plate reader.
as §2

[3] = test system: secretion of interferon-beta from THP1 cells; experiment: IFN-β secretion in THP1 cell culture (5 h); assay type: cell-based; conditions: Homo sapiens, THP-1, 5 h, 30 uM cGAMP = 100%; for activation at 30 µM: compound at 30 μM, read-out: % Effect at 30 μM relative to 2′3′-cGAMP
Experimental: The ability of compounds to stimulate the secretion of interferon-beta from THP1 cells was measured using a human IFN-β AlphaLISA kit (Perkin Elmer, Cat. No. AL265F). The basic protocol is as follows:
A Labcyte Echo 550 acoustic dispenser was used to transfer 120 nL of compound dissolved in DMSO into the wells of an empty, sterile 384-well microplate, (Corning, Cat. No. 3712). THP1 cells (American Type Culture Collection, Cat. No. TIB202) previously frozen in Recovery Medium (Life Technologies, Cat. No. 12648-010) were thawed and immediately diluted 10-fold into 37° C. assay medium (RPMI 1640+L-Glutamine & phenol red, Life Technologies, Cat. No. 11875-085; 0.5% heat inactivated fetal bovine serum, Sigma Aldrich, Cat. No. F4135; 1 mM Sodium Pyruvate, Life Technologies, Cat. No. 11360-070; 1× non-essential amino acids; Life Technologies, Cat. No. 11140-050). The cell viability and count was ascertained using a Beckman Coulter V-Cell XR cell counter. The cells suspension was centrifuged at 200×g for 5 min at RT. Cells were resuspended to a density of 0.8×10^6/mL in 37° C. assay medium. Subsequent liquid transfers were performed using either a Matrix electronic multichannel pipette or an Agilent Bravo Automated Liquid Handling Platform.
The assay was started by dispensing 40 μL of the previously prepared cell suspension into the wells of the plate containing compounds. After 5 h incubation at 37° C., 5% CO2 in a humidified atmosphere, the plate of cells and compounds was centrifuged at 200×g for 5 min at RT. From each well, 5 μL of supernatant was transferred into corresponding wells of a white 384-well plate (Perkin Elmer, Cat. No. 6005620). To these supernatant-containing wells was added 10 μL of 5× Anti-Analyte Acceptor beads (50 μg/mL of AlphaLISA HiBlock Buffer) and incubated for 30 min at RT while shaking on an orbital plate shaker. To each well was added 10 μL of 5× Biotinylated Antibody Anti-analyte (5 nM in AlphaLISA HiBlock Buffer) and incubated on an orbital plate shaker for 60 min at RT or overnight at 4° C. To each well was added 25 μL of 2× SA-Donor beads (80 μg/mL in AlphaLISA HiBlock Buffer) and incubated for 30-45 min at RT in the dark while shaking on an orbital plate shaker. The plate was then read on a Perkin Elmer Envision (λex=680 nm, […]). The percent effect of the AlphaLISA signal at each compound concentration was calculated based on 30 uM cGAMP positive controls and 0.3% DMSO negative controls. The plot of percent effect versus the log of compound concentration was fit with a 4-parameter concentration response equation to calculate EC50 values. The test compounds were tested at concentrations 30000, 10000, 3333, 1111, 370.4, 123.4, 41.2, 13.7, 4.6, and 1.5 nM with 0.3% residual DMSO. The control compound, cGAMP was tested at concentrations 100000, 33333, 11111, 3704, 1235, 412, 137, 46, and 15 nM with 0.3% residual DMSO.
Compounds of the disclosure were evaluated for IFN-β secretion in THP1 cell culture as described above. The following table tabulates the biological data for these compounds as percent activation relative to 2′3′-cGAMP at the 30 µM concentration.

T1 sequence (Q86WV6 with tags, fused parts or gaps R71H/G230A/H232R/R293Q): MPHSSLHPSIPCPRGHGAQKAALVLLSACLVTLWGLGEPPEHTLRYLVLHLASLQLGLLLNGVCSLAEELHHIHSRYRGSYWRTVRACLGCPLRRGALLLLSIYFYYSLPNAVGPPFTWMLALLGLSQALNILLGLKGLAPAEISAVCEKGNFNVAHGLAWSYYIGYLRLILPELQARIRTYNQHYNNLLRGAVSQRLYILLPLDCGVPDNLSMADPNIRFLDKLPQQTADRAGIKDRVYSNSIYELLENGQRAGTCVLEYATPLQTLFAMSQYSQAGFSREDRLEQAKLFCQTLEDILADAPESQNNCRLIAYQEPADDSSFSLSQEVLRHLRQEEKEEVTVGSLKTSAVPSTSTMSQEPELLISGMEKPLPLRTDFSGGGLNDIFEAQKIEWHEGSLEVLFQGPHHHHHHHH
T2 sequence (Q86WV6 with tags, fused parts or gaps H232R): as the sequence (Q86WV6 with tags, fused parts or gaps R71H/G230A/H232R/R293Q) above, with H71R, A230G, Q293R counted along it

Structure (SMILES)	EC50 [1] [nM]	EC50 [2] [nM]	activation at 30 µM [3] [%]	activation at 3 µM ([3]; compound at 3 uM, read-out: % Effect relative to 2′3′-cGAMP (@ 3 uM)) [%]
COc1cc2sc(C(=O)C[C@H](C)C(=O)O)cc2cc1OCCCCCOc1cc2sc(C(=O)C[C@H](C)C(=O)O)cc2cc1OC [Example 104, (S)-4-(5-((5-((2-((S)-3-carboxybutanoyl)-5-methoxybenzo[b]thiophen-6-yl)oxy)pentyl)oxy)-6-methoxybenzo [b]thiophen-2-yl)-2-methyl-4-oxobutanoic acid]	467	8900	35	–
COc1cc2sc(C(=O)C[C@H](C)C(=O)O)cc2cc1OCCCOc1cc2sc(C(=O)C[C@H](C)C(=O)O)cc2nc1OC [Example 166, (S)-4-(5-(3-((2-((S)-3-carboxybutanoyl)-5-methoxythieno[3,2-b]pyridin-6-yl)oxy)propoxy)-6-methoxybenzo[b]thiophen-2-yl)-2-methyl-4-oxobutanoic acid]	8	117	34	–
COc1cc2sc(C(=O)C[C@H](C)C(=O)O)cc2cc1OCCCOc1c(OC)cc2sc(C(=O)CCC(=O)O)cc2c1F [Example 72, (S)-4-(5-(3-((2-(3-carboxypropanoyl)-4-fluoro-6-methoxybenzo[b]thiophen-5-yl)oxy)propoxy)-6-methoxybenzo[b]thiophen-2-yl)-2-methyl-4-oxobutanoic acid]	1	2	77	–
COc1cc2sc(C(=O)CCC(=O)O)cc2cc1CCCOc1nc2cc(C(=O)C[C@H](C)C(=O)O)sc2cc1OC [Example 3, (S)-4-(5-(3-(2-(3-carboxypropanoyl)-6-methoxybenzo[b]thiophen-5-yl)propoxy)-6-methoxythieno[3,2-b]pyridin-2-yl)-2-methyl-4-oxobutanoic acid]	114	273	151	–
COc1cc2cc(C(=O)CCC(=O)O)sc2cc1OCCCOc1cc2sc(C(=O)CCC(=O)O)cc2cc1OC [Example 127, 4,4′-(6,6′-(propane-1,3-diylbis(oxy))bis(5-methoxybenzo[b]thiophene-6,2-diyl))bis(4-oxobutanoic acid)]	16	270	120	–
COc1cc2sc(C(=O)C[C@H](C)C(=O)O)cc2cc1OCCCOc1ccc2cc(C(=O)CCC(=O)O)sc2c1 [Example 43, (S)-4-(5-(3-((2-(3-carboxypropanoyl)benzo[b]thiophen-6-yl)oxy)propoxy)-6-methoxybenzo [b]thiophen-2-yl)-2-methyl-4-oxobutanoic acid]	49	151	69	–
COc1cc2sc(C(=O)C[C@H](C)C(=O)O)cc2cc1OCCOc1cc2sc(C(=O)C[C@H](C)C(=O)O)cc2cc1OC (racemic) [Example 57, rac-(R)-4-(5-(2-((2-((R)-3-carboxybutanoyl)-5-methoxybenzo[b]thiophen-6-yl)oxy)ethoxy)-6-methoxybenzo[b]thiophen-2-yl)-2-methyl-4-oxobutanoic acid]	92	398	15	–
COc1cc2sc(C(=O)C[C@H](C)C(=O)O)cc2cc1OCCCOc1c(OC)cc2sc(CC[C@H](C)C(=O)O)cc2c1Cl [Example 150, (S)-4-(5-(3-((2-((S)-3-carboxybutyl)-4-chloro-6-methoxybenzo[b]thiophen-5-yl)oxy)propoxy)-6-methoxybenzo[b]thiophen-2-yl)-2-methyl-4-oxobutanoic acid]	213	1040	–	52
COc1cc(CCCc2cc3sc(C(=O)CCC(=O)O)cc3cc2OC)c2cc(C(=O)CCC(=O)O)sc2c1 [Example 26, 4-(4-(3-(2-(3-carboxypropanoyl)-5-methoxbenzo[b]thiophen-6-yl)propyl)-6-methoxybenzo[b]thiophen-2-yl)-4-oxobutanoic acid]	9	19	129	–

Reference: patent US10793557B2, “Sting agonist compounds” (Merck Sharp & Dohme Corp., priority 2018, dated 2020)
